Data set [1] in a line: Fluorescent signal stability under continuous excitation (automatic exposure time, ASA 1600). The data set is classed as physicochemical. To be noted: mouse brain section.
Procedure: Sections of paraffin-embedded mouse brain were deparaffinized and non-specific binding sites were blocked by treatment for thirty minutes in PBS-BB. Monoclonal antibody against microtubule associated protein-2 (Sigma) was diluted 1:100,000 in PBS-BB and incubated on the sections overnight at 4° C. Sections were then washed in PBS (three×five minutes each wash) and incubated at room temperature for one hour with HRP-conjugated donkey anti-mouse antibodies (Jackson Immunoresearch Laboratories; West Grove, Pa.) diluted 1:1000 in PBS-BB. […]
The fluorescein labeled section was viewed with a filter set having excitation/emission peaks at 490 nm/520 nm. […] Photomicrographs using standard two second exposures were taken at both time points to assess changes in fluorescence intensity over time. In addition, fluorescence intensity was semi-quantitated at both time points by recording the automatic exposure time required for photomicrographic documentation in a standard field using an ASA setting of 1600 and the MC100 camera system (Zeiss). Using this measure, short exposure times correlate with bright-fluorescence and long exposure times with dim fluorescence.
The target in data set [2] is Horseradish peroxidase (HRP) conjugated wheat germ agglutinin (Armoracia rusticana, UniProt P00433). Particulars: mouse intestine section. The method, then:
Sections of paraffin-embedded mouse intestine were deparaffinized, and non-specific binding sites were blocked by treatment for thirty minutes in PBS-blocking buffer (PBS-BB) (0.1 M phosphate buffered saline, pH 7.2; 1.0% bovine serum albumin, 0.2% non-fat powdered milk; and 0.3% Triton X-100). Horseradish peroxidase (HRP) conjugated wheat germ agglutinin (Sigma; St. Louis, Mo.) at a concentration of 10 μg/ml in PBS-BB was incubated on the sections for one hour at room temperature. Sections were then washed in PBS (three×five minutes each wash) and Tris (0.1 M Tris, pH 8.5; three×three minutes each wash). N-(5-hydroxypentyl)-3-(p-hydroxyphenyl) propionamide (HHPA), 1 mg/ml in Tris containing 0.003% H2O2, was then added to the sections at room temperature for ten minutes. Sections were then washed in Tris (three×three minutes each wash) and mounted with Tris:Glycerol (1:1) and coverslipped. Sections were viewed with a Zeiss Axioskop microscope equipped with epifluorescence and filter sets with excitation/emission characteristics of 360 nm/>400 nm (blue-white fluorescence); 490 nm/520 nm (green fluorescence); and 550 nm/570 nm (red fluorescence). Sections were photographed with a Zeiss MC100 camera system.
Wheat germ agglutinin binds to N-acetylglucosamine residues present in abundance in intestinal mucin producing goblet cells. […] The microscopic field was then illuminated for one minute at 360 nm and reexamined as described above. […] Original magnifications 400×.

Chain of Horseradish peroxidase (HRP) conjugated wheat germ agglutinin (P00433 31-338 limits assumed): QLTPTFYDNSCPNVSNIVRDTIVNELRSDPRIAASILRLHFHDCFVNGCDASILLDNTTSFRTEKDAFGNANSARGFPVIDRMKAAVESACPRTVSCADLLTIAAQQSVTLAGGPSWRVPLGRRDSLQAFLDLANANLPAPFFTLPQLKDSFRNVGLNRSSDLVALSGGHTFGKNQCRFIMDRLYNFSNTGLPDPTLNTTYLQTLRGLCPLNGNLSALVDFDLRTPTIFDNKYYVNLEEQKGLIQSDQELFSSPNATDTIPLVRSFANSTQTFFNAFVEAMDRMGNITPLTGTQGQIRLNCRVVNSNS

With `O=C(CCc1ccc(O)cc1)NCCCCCO` [HHPA, N-(5-hydroxypentyl)-3-(p-hydroxyphenyl) propionamide], the “time required for a standard ASA 1600 exposure” value in data set [1] (after fifteen minutes of continuous excitation) was 3.1 s; in data set [1] (time zero, short exposure = bright fluorescence), 4.1 s. For the same molecule, the “fluorescence signal, blue-white filter set” value in data set [2] (360 nm excitation, before one minute illumination at 360 nm) is reported as “weak fluorescence signal”. The “fluorescent signal, all three filter sets (blue-white, green, red)” value in data set [2] (after one minute illumination at 360 nm, localized to goblet cells) is “Intense fluorescent signals”. Besides, in data set [2] (before one minute illumination at 360 nm), the “fluorescence signal, green or red filter sets” value is “almost no signal”.

The record behind these values is patent US6518036B1, “Method of permanent fluorescent assay” (Nen Life Science Products, Inc., priority 1999, dated 2003).
